# Source: paper PMC10906927, “Structure of the PCNA unloader Elg1-RFC” (Science Advances, 2024)
# T1: Rfc4, subunit of Elg1-RFC (S. cerevisiae, UniProt P40339 1-323)
# T1 construct: Rfc4, S. cerevisiae replication factor C subunit 4; Stood in the assay as a subunit of the Elg1-RFC pentamer; source: E. coli BLR(DE3), co-expressed with Elg1 and Rfc2, 3, 5, purified as Elg1-RFC (anti-FLAG resin, MonoS)
# T1 sequence: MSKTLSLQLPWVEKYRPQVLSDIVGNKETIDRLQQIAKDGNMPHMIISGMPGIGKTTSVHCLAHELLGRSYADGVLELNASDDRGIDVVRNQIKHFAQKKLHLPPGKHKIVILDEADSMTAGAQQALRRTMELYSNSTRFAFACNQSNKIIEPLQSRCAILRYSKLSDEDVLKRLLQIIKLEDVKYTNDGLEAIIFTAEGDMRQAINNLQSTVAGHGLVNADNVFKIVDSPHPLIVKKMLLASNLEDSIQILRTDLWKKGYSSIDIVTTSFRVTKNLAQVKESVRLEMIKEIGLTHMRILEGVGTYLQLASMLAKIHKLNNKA
# T2: Elg1 (enhanced levels of genome instability 1), subunit of Elg1-RFC (S. cerevisiae, UniProt Q12050 1-791)
# T2 construct: Elg1 (enhanced levels of genome instability 1), S. cerevisiae; Stood in the assay as a subunit of the Elg1-RFC pentamer; also called 3xFLAG-Elg1; Elg1 subunit; source: E. coli BLR(DE3), co-expressed with Rfc2-5, purified as Elg1-RFC (anti-FLAG resin, MonoS)
# T2 sequence (looked up): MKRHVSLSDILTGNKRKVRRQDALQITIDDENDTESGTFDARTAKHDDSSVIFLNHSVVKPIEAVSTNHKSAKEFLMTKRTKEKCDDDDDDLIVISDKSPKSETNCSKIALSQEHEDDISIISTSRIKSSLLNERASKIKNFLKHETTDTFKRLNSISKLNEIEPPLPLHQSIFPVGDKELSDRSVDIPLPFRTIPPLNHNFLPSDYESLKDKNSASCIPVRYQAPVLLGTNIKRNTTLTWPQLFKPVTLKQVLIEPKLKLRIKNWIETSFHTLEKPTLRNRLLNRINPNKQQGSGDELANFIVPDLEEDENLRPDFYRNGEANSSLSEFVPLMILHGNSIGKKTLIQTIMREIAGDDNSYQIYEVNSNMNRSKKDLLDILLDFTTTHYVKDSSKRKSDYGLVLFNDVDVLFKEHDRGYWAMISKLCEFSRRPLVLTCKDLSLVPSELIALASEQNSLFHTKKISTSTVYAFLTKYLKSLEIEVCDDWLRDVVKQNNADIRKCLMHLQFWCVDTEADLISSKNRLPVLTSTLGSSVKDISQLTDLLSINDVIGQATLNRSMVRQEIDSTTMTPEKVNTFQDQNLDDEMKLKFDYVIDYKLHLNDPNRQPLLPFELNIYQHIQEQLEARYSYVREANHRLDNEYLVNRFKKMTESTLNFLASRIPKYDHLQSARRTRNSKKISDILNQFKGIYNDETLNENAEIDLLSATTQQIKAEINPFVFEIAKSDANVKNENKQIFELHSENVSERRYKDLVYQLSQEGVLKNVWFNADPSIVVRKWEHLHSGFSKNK
# T3: Rfc3, subunit of Elg1-RFC (S. cerevisiae, UniProt P38629 1-340)
# T3 construct: Rfc3, S. cerevisiae replication factor C subunit 3; Stood in the assay as a subunit of the Elg1-RFC pentamer; source: E. coli BLR(DE3), co-expressed with Elg1 and Rfc2, 4, 5, purified as Elg1-RFC (anti-FLAG resin, MonoS)
# T3 sequence: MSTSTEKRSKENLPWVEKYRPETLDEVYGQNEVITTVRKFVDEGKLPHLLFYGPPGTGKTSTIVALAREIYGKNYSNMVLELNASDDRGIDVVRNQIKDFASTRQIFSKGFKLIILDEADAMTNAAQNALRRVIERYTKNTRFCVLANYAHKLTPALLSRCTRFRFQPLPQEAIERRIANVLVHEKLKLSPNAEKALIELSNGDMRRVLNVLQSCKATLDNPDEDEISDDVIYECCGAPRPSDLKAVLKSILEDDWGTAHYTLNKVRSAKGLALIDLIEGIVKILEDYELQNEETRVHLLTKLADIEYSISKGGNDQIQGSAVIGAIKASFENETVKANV
# B1: proliferating cell nuclear antigen (PCNA), S. cerevisiae (natural protein)
# chain: MLEAKFEEASLFKRIIDGFKDCVQLVNFQCKEDGIIAQAVDDSRVLLVSLEIGVEAFQEYRCDHPVTLGMDLTSLSKILRCGNNTDTLTLIADNTPDSIILLFEDTKKDRIAEYSLKLMDIDADFLKIEELQYDSTLSLPSSEFSKIVRDLSQLSDSINIMITKETIKFVADGDIGSGSVIIKPFVDMEHPETSIKLEMDQPVDLTFGAKYLLDIIKGSSLSDRVGIRLSSEAPALFQFDLKSGFLQFFLAPKFNDEE
# notes: PCNA, S. cerevisiae sliding clamp; Homotrimeric ring; In the unloading assays the kinase site was labelled with 32P; also called PCNA clamp; PCNA ring
# What was measured:
# Elg1-RFC–PCNA = test system: T4, Elg1-RFC–PCNA; assay: cryo-EM structure, […] Å (closed PCNA) and […] Å (cracked PCNA); type: binding, Saccharomyces cerevisiae; conditions: glutaraldehyde cross-linked
# T4 construct: with Proliferating cell nuclear antigen
# Elg1-RFC [1] = test system: T5, Elg1-RFC; assay: cryo-EM structure, […] Å; type: binding, Saccharomyces cerevisiae
# T5 construct: heteropentamer; 3xFLAG-Elg1 and Rfc5 (pLANT-2RIL) with Rfc2, Rfc3, Rfc4 (pET11a) co-expressed in E. coli BLR(DE3) (results text says expressed in yeast); anti-FLAG and MonoS; no tag removal told
# Elg1-RFC [2] = test system: T5, Elg1-RFC; assay: […]-PCNA unloading from nicked plasmid, gel filtration; type: biochemical, Saccharomyces cerevisiae; conditions: 2 mM AMP-PNP, 56 nM Elg1-RFC, 0.69 nM 32P-PCNA-DNA, 8 mM MgCl2, 100 mM NaCl, pH 7.5, 30 °C, 2 min; supports unloading without hydrolysis
# [3] = molecular target: T1, Rfc4, subunit of Elg1-RFC; assay: cryo-EM structure; Elg1-RFC 2.9 uM, PCNA clamp 1.3 uM, 5'-tailed DNA 28.7 uM, ATPgammaS 0.5 mM, Mg-acetate 6.7 mM, ice-water bath, then cross-linked with glutaraldehyde and quenched with Tris; no DNA seen in the maps; closed and cracked PCNA ring; conditions: both partners purified
# [4] = molecular target: T2, Elg1 (enhanced levels of genome …); assay: as above; conditions: both partners purified
# [5] = molecular target: the molecule itself; assay: as above
# [6] = molecular target: T3, Rfc3, subunit of Elg1-RFC; assay: as above; conditions: both partners purified
# [7] = site in Rfc5, ADP not listed among added components
# T5 sequence (P40348 whole entry, one chain of several, further chain): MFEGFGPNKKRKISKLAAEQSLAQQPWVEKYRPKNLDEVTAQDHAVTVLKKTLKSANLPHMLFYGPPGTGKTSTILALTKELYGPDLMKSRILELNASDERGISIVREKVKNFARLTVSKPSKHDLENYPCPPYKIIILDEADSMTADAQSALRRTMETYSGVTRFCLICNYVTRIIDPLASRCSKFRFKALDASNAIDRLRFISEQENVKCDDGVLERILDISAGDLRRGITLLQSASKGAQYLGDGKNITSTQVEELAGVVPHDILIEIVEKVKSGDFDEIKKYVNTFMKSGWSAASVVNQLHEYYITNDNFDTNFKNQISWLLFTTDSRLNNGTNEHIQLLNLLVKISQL
# T5 sequence (P38251 whole entry, one chain of several, further chain): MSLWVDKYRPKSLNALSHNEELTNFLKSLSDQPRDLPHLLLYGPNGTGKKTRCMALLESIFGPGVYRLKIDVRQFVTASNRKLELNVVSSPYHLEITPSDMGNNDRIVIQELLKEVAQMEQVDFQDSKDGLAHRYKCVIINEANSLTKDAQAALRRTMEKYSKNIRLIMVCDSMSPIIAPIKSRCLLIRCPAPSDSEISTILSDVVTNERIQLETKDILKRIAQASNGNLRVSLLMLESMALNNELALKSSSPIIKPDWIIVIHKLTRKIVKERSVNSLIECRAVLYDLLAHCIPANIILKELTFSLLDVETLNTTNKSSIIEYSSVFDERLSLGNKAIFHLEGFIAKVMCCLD
# T4 sequence (P40348 whole entry, one chain of several, further chain): as the sequence (P40348 whole entry, one chain of several, further chain) above
# T4 sequence (P38251 whole entry, one chain of several, further chain): as the sequence (P38251 whole entry, one chain of several, further chain) above
molecule,measurement,setting,value
Nc1ncnc2c1ncn2[C@@H]1O[C@H](COP(=O)(O)OP(=O)(O)OP(O)(O)=S)[C@@H](O)[C@H]1O [ATPγS],"cryo-EM structure, 3.3 Å (closed PCNA) and 3.7 Å (cracked PCNA)","Elg1-RFC–PCNA; 0.5 mM ATPγS final (1 mM in results text), 6.7 mM Mg-acetate, sites in Rfc2, Rfc3, Rfc4 and Elg1","In all three Elg1-RFC structures, we found five bound nucleotides: four ATPγS in Rfc2, Rfc3"
same,"cryo-EM structure, 3.2 Å","Elg1-RFC [1]; 0.5 mM ATPγS final (1 mM in results text), 6.7 mM Mg-acetate, sites in Rfc2, Rfc3, Rfc4 and Elg1, Elg1 site without Mg density","four ATPγS in Rfc2, Rfc3, Rfc4, and Elg1, and one ADP in Rfc5"
Nc1ncnc2c1ncn2[C@@H]1O[C@H](COP(=O)(O)OP(=O)(O)NP(=O)(O)O)[C@@H](O)[C@H]1O [AMP-PNP],"32P-PCNA unloading from nicked plasmid, gel filtration",Elg1-RFC [2],Elg1-RFC can unload PCNA from DNA with non-hydrolyzable AMP-PNP
Nc1ncnc2c1ncn2[C@@H]1O[C@H](COP(=O)(O)OP(=O)(O)O)[C@@H](O)[C@H]1O [ADP],"cryo-EM structure, 3.3 Å (closed PCNA) and 3.7 Å (cracked PCNA)",Elg1-RFC–PCNA; [7],"In all three Elg1-RFC structures, we found five bound nucleotides"
same,"cryo-EM structure, 3.2 Å",Elg1-RFC [1]; [7],"four ATPγS in Rfc2, Rfc3, Rfc4, and Elg1, and one ADP in Rfc5"
B1,binding result,[3],binds
same,binding result,[4],binds
same,stoichiometry N,[5],3
same,binding result,[6],binds
